{
  "source": "patent US11459624B2",
  "about": "“Compositions and methods for determining resistance to inhibitors of virus entry using recombinant virus assays” (MONOGRAM BIOSCIENCES, INC., priority 2004, dated 2022)",
  "system": "HIV-1",
  "test": "Phenotypic HIV-1 entry inhibitor susceptibility assay (pseudotyped virus, single-round infection, luciferase readout)",
  "format": "cell-based",
  "settings": "for IC50 for inhibition of entry, resistant HIV relative to sensitive reference virus / maximum percentage of inhibition, resistant viruses relative to sensitive viruses: log-sigmoid inhibition curves; for IC50 for inhibition of entry, resistant HIV relative to sensitive reference virus / completeness of inhibition of entry of resistant virus at high inhibitor concentrations / maximum percentage of inhibition, resistant viruses relative to sensitive viruses: viruses resistant to the inhibitor; for IC50 for inhibition of entry, resistant HIV relative to sensitive reference virus: FIG. 5; for maximum percentage of inhibition, resistant viruses relative to sensitive viruses: FIG. 6, FIG. 8",
  "method": "Susceptibility assays for HIV-1 entry inhibitors were performed using packaging host cells consisting of the human embryonic kidney cell line 293 (Cell Culture Facility, UC San Francisco, SF, Calif.) and target host cells consisting of a human osteosarcoma (HOS) cell line expressing CD4 (HT4) plus CCR5, and CXCR4, or astrocytoma (U-87) cell lines expressing either CD4 and CCR5 or CD4 and CXCR4.\nDrug susceptibility testing was performed using pHIVenv and pHIVluc or pHIVlucΔU3. Pseudotyped HIV particles containing envelope proteins encoded by the subject derived segment were produced by transfecting a packaging host cell (HEK 293) with resistance test vector DNA. Virus particles were collected about 48 h after transfection and were used to infect target cells (HT4/CCR5/CXCR4, or U-87/CD4/CXCR4, or U-87/CD4/CCR5) that express the HIV receptor (i.e. CD4) and co-receptors (i.e. CXCR4, CCR5). After infection (~72 h) the target cells are lysed and luciferase activity is measured. HIV must complete one round of replication to successfully infect the target host cell and produce luciferase activity. The amount of luciferase activity detected in the infected cells is used as a direct measure of “infectivity” (FIGS. 1 and 2). […] Drug susceptibility is assessed by comparing the infectivity in the absence of drug to infectivity in the presence of drug.\nPackaging host cells were seeded in 10-cm-diameter dishes and were transfected one day after plating with pHIVenv and pHIVluc or pHIVlucΔU3. Transfections were performed using a calcium-phosphate co-precipitation procedure. The cell culture media containing the DNA precipitate was replaced with fresh medium, from one to 24 hours, after transfection. Cell culture media containing viral particles was typically harvested 2 days after transfection and was passed through a […] filter. Before infection, target cells were plated in cell culture media. […] Typically, 3 days after infection target cells were assayed for luciferase activity using the Steady-Glo reagent (Promega) and a luminometer.\nHowever, any such susceptibility assay known by one of skill in the art can in principle be used in the methods for determining phenotypic drug susceptibility. Drug susceptibility can be plotted, for example, as percent inhibition versus log10 drug concentration and defined based on, for example, the IC50 and percent inhibition at the highest drug concentration. […] In this example, the phenotypic drug susceptibility assay of Example 1 was used to determine a log-sigmoid curve showing the resistance of mutant HIV to SCH-C, TNX-355, T-20, and AMD-3100.",
  "data": [
    {"molecule": "c1cc(CN2CCCNCCNCCCNCC2)ccc1CN1CCCNCCNCCCNCC1", "note": "[AMD-3100]", "values": [
      {"measurement": "IC50 for inhibition of entry, resistant HIV relative to sensitive reference virus", "value": "increased IC50"},
      {"measurement": "completeness of inhibition of entry of resistant virus at high inhibitor concentrations", "value": "can be completely inhibited"}
    ]},
    {"molecule": "CCO/N=C(\\c1ccc(Br)cc1)C1CCN(C2(C)CCN(C(=O)c3c(C)cc[n+]([O-])c3C)CC2)CC1", "note": "[SCH-C]", "values": [
      {"measurement": "maximum percentage of inhibition, resistant viruses relative to sensitive viruses", "value": "reduced maximum percentage of inhibition"}
    ]},
    {"molecule": "TNX-355: HIV entry inhibitor (Tanox Inc.), non-competitive", "values": [
      {"measurement": "maximum percentage of inhibition, resistant viruses relative to sensitive viruses", "value": "reduced maximum percentage of inhibition"}
    ]},
    {"molecule": "enfuvirtide", "values": [
      {"measurement": "susceptibility of viruses with drug resistance mutations in the gp41 envelope protein", "setting": "cells expressing CD4, CCR5 and CXCR4, isogenic viruses with one or two gp41 mutations, FIG. 4B", "value": "reduced susceptibility"},
      {"measurement": "IC50 for inhibition of entry, resistant HIV relative to sensitive reference virus", "value": "increased IC50"},
      {"measurement": "completeness of inhibition of entry of resistant virus at high inhibitor concentrations", "value": "can be completely inhibited"}
    ]}
  ]
}
